Reference: US7115721B2, “Microorganism, its product and utilization thereof” (Astellas Pharma Inc., priority 2002, dated 2006)
Converted amounts (≈) assume the structure as drawn. Read-outs that look alike come from different tables or passages of the source.

What was measured:
[1] = tested on: melanin pigmentation of skin after exposure to sunlight; assay: Whitening effect on skin of subjects exposed to sunlight; format: in vivo, human; conditions: for Whitening effect: applied morning and evening over four weeks, 20 subjects
Protocol: The whitening effect of the compound (I) of the present invention was measured according to the following method. 20 subjects were exposed to sunlight for […] from 11:00 a.m. to 1:00 p.m. over two days in summer. Five days after the exposure to sunlight, a water phase and an alcohol phase having compositions respectively shown in FIG. 5 and FIG. 6 were mixed and dissolved, and the solution was applied to the skin on the medial side of the upper arm of each exposed subject once for every morning and evening over four weeks. [table] [table] After four weeks, the whitening effect was judged for each subject. The effect was judged according to the following standards.

[2] = biological target: T1, tyrosinase originating from B16 melanoma (Mus musculus, UniProt P11344); assay: Inhibitory activity to tyrosinase originating from B16 melanoma; format: biochemical; conditions: crude enzyme solution, L-dopa substrate, pH 6.8, 25° C., two hours
T1 construct: The supernatant liquid was collected and preserved in ice until the time it was used (crude enzyme solution); endogenous in cells; host or cells: B16 melanoma cells, homogenate supernatant (crude enzyme solution)
T1 sequence (P11344 19-533): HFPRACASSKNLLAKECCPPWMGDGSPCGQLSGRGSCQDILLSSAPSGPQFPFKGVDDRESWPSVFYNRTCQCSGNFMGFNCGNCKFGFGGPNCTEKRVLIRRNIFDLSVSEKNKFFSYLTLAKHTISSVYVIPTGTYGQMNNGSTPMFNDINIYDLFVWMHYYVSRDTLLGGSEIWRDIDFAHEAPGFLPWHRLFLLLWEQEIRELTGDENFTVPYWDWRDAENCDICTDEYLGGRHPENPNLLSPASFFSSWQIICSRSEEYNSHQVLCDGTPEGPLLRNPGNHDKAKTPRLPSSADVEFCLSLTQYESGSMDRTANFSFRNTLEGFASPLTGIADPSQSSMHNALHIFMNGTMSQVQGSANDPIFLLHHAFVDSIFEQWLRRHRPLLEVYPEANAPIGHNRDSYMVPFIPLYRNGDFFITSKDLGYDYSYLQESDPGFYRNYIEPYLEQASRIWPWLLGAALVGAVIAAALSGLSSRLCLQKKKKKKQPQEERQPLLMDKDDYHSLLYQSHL
Protocol: Inhibitory Activity to Tyrosinase Originating from B16 Melanoma
(§1) About 2.0×10^5/ampoule B16 melanoma cell strain preserved in a frozen state in liquid nitrogen was dissolved in a water bath at 37° C. and immediately suspended in 10 ml of a culture medium. After centrifugation at 800 rpm for five minutes, the supernatant liquid was discarded and the cells were suspended in 10 ml of a fresh culture medium. The suspension was again centrifuged under the same conditions, the supernatant liquid was discarded, and the cells were again suspended in a fresh culture medium.
About 4.0×10^5 cells were seeded in a 75 cm^2 flask. The cells were cultured at 37° C. in a 5% CO2 atmosphere for one week while replacing the medium every 2–3 days. The culture medium in which the cells have grown to bring the medium into a subconfluent state was discarded. The surface of the cultured cells was washed with PBS(−), following which the cells were stripped using 0.25% trypsin. A medium containing serum was added to terminate the trypsin reaction. After loosening the cells by pipetting, the cell suspension was transferred to a centrifugal tube. […] The number of cells was counted using a cytometer. […]
L-dopa was adjusted to a concentration of 0.8 mg/ml with the 0.05 M phosphate buffer (pH 6.8). […] Then, the absorption at 475 nm was measured.

[3] = biological target: Tyrosinase originating from mushroom; assay: Inhibitory activity to tyrosinase originating from mushroom; format: biochemical; conditions: L-dopa substrate, pH 6.8, 25° C., 10 minutes
Protocol: Inhibitory Activity to Tyrosinase Originating from Mushroom Tyrosinase originating from mushroom (Sigma company) was dissolved in a 0.05 M phosphate buffer (pH 6.8) to a concentration of 20 U/ml. L-dopa was adjusted to a concentration of 0.3 mg/ml with a 0.05 M phosphate buffer (pH 6.8). A 96-well plate was charged with 30 μl of the L-dopa solution and 30 μl of solutions of the compound (I) of the present invention at various concentrations, immediately followed by mixing with 30 μl of the tyrosinase solution originating from mushroom. After incubation at 25° C. for 10 minutes, the absorbance at 450 nm was measured using a microplate reader.

[4] = tested on: B16 melanoma (B-16/2D2 cells); assay: Inhibitory activity to melanogenesis of B16 melanoma (extracellular and intracellular melanin, amount of proteins); format: cell-based; conditions: for IC50: Mus musculus, B16, 120 h
Protocol: Inhibitory Activity to Melanogenesis of B16 Melanoma
as §1
About 4.0×10^5 cells were seeded in a 75 cm^2 flask. The cells were cultured at 37° C. in a 5% CO2 atmosphere for one week while replacing the medium every 2–3 days. The culture medium in which the cells have grown to bring the medium into a subconfluent state was discarded. The surface of the cultured cells was washed with PBS(−), following which the cells were stripped using 0.25% trypsin. A medium containing serum was added to terminate the trypsin reaction. After loosening the cells by pipetting, the cell suspension was transferred to a centrifugal tube. After centrifugation at 800 rpm for five minutes, the supernatant liquid was discarded and the cells were suspended in a fresh culture medium (not containing phenol red). The number of cells was counted using a cytometer.
The cell suspension was diluted with a medium (not containing phenol red) to make the cell concentration 2×10^5 cells/ml. The resulting suspension was seeded in a 96-well plate in an amount of 100 μl/well. The cells were incubated at 37° C. in a 5% CO2 atmosphere for one day. Solutions of the compound (I) of the present invention at various concentrations were prepared in a medium (not containing phenol red). The resulting solutions were added to a 96-well plate in an amount of 100 μl/well. The cells were incubated at 37° C. in a 5% CO2 atmosphere for five days and evaluated according to the following method.
1. Amount of Extracellular Melanin
The culture medium was transferred to an assay plate in an amount of 150 μl/well while taking care so that foam was not produced to measure OD450 using a microplate reader.
2. Amount of Intracellular Melanin
The plate containing the cells was inverted to discard the remaining culture medium. 0.1 N NaOH-0.1% Triton X-100 was added in an amount of 150 μl/well to dissolve the cells by pipetting. The culture medium was transferred to an assay plate in an amount of 100 μl/well to measure OD450 using a microplate reader.
Distilled water was added to the assay plate in an amount of 156 μl/well. Then, 4 μl/well of the cell solution remaining after measuring the amount of intracellular melanin was added. Next, 40 μl/well of a Bio-rad protein assay die solution was added, followed by shaking for two minutes. After allowing to stand for five minutes, OD590 was measured using a microplate reader.

[5] = concentration in which whitening actions were clearly exhibited

SMILES	Whitening effect ([1]; 1.0 wt % test agent)	IC50 [2]	IC50 Mushroom tyrosinase [3]	Whitening effect ([1]; 0.1 wt % test agent)	Whitening effect ([1]; 0.3 wt % test agent)	Abnormalities of the skin (erythema, edema) or side effects ([1]; topical application over four weeks in subjects)	IC50 ([4]; read-out: IC50 Extracellular melanogenesis)	IC50 ([4]; read-out: IC50 Intracellular melanogenesis)	IC50 ([4]; read-out: IC50 Protein synthesis)	Effects on the amount of proteins in the cells [4, 5]	Effects on the number of grown cells [4, 5]	Morphological changes in the cells by microscopic inspection [4, 5]
Oc1ccc(O)cc1 [Hydroquinone, reference compound]	Good (50–80% of subjects exhibited a complete response or partial response)	–	–	–	–	–	–	–	–	–	–	–
O=c1cc(CO)occ1O [Kojic acid, reference compound]	Fair (30–50% of subjects exhibited a complete response or partial response)	–	–	–	–	–	–	–	–	–	–	–
[C-]#[N+]/C=C/c1ccc(O[C@@H]2O[C@@H](C)[C@H](O)[C@@H](O)[C@H]2O)cc1 [Compound (I), (E)-4-(2-isocyanovinyl)phenyl α-L-rhamnopyranoside]	–	1.85 nM	0.0019 µg/mL (≈ 0.00652 µM)	Good (50–80% of subjects exhibited a complete response or partial response)	Good (50–80% of subjects exhibited a complete response or partial response)	neither abnormalities of the skin, such as erythema or edema, nor any side effects	0.052 µg/mL (≈ 0.179 µM)	0.074 µg/mL (≈ 0.254 µM)	0.9 µg/mL (≈ 3.09 µM)	nor were there any effects	nor were there any effects	no morphological changes
